Measured values published in US7528135B2, “Pyridine derivatives as H3 antagonists” (Hoffmann-La Roche Inc., priority 2004, dated 2009).

Target: T1, histamine 3 receptor (H3R) (Homo sapiens, UniProt Q9Y5N1)
T1 construct: expressed in transfected cells; host or cells: CHO cells (HR3-CHO cell line), membrane preparation
Test: Binding assay with 3H-(R)α-methylhistamine (competition binding, human HR3-CHO membranes)
Conditions: competition against 3H(R)α-Methylhistamine (1 nM = Kd), membrane of the human HR3-CHO cell line; Ki calculated from IC50 by Cheng-Prusoff
Method: Binding Assay with ^3H-(R)α-methylhistamine
Saturation binding experiments were performed using HR3-CHO membranes prepared as described in Takahashi, K, Tokita, S., Kotani, H. (2003) J. Pharmacol. Exp. Therapeutics 307, 213-218.
An appropriate amount of membrane (60 to 80 μg protein/well) was incubated with increasing concentrations of ^3H(R)α-Methylhistamine di-hydrochloride (0.10 to 10 nM). Non specific binding was determined using a 200 fold excess of cold (R)α-Methylhistamine dihydrobromide (500 nM final concentration). The incubation was carried out at room temperature (in deep-well plates shaking for three hours). The final volume in each well was 250 μl. The incubation was followed by rapid filtration on GF/B filters (pre-soaked with 100 μl of 0.5% PEI in Tris 50 mM shaking at 200 rpm for two hours). The filtration was made using a cell-harvester and the filter plates were then washed five times with ice cold washing buffer containing 0.5 M NaCl. After harvesting, the plates were dried at 55° C. for 60 min, then we added scintillation fluid (Microscint 40, 40 microl in each well) and the amount of radioactivity on the filter was determined in Packard top-counter after shaking the plates for two hours at 200 rpm at room temperature.
Binding Buffer: 50 mM Tris-HCl pH 7.4 and 5 mM MgCl2x6H2O pH 7.4. Washing Buffer: 50 mM Tris-HCl pH 7.4 and 5 mM MgCl2x6H2O and 0.5 M NaCl pH 7.4.
Indirect measurement of affinity of H3R inverse agonists: twelve increasing concentrations (ranging from 10 μM to 0.3 nM) of the selected compounds were always tested in competition binding experiments using membrane of the human HR3-CHO cell line. An appropriate amount of protein, e.g. approximately 500 cpm binding of RAMH at Kd, were incubated for 1 hour at room temperature in 250 μl final volume in 96-well plates in presence of ^3H(R)α-Methylhistamine (1 nM final concentration=Kd). […]
All compounds were tested at a single concentration in duplicates. […] Ki's were calculated from IC50 based on Cheng-Prusoff equation (Cheng, Y, Prusoff, W H (1973) Biochem Pharmacol 22, 3099-3108).

T1 sequence (Q9Y5N1 whole entry): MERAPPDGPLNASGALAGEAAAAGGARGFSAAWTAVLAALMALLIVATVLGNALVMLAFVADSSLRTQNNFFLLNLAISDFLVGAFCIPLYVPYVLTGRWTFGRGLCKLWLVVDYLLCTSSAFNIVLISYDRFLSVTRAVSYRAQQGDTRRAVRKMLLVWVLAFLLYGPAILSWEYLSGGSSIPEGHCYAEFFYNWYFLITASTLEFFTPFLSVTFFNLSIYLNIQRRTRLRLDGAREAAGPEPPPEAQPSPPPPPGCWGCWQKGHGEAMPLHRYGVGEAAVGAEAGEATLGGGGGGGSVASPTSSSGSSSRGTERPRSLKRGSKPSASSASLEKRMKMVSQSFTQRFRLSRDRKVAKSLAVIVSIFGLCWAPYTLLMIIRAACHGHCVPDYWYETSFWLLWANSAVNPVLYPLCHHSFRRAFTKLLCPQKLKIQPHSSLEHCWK

Ki [nM]	Structure (SMILES)
81	CN(C)S(=O)(=O)Nc1ccc(N2CCN(C3CCCC3)CC2)nc1 [Example 34, N-[6-(4-cyclopentyl-piperazin-1-yl)-pyridin-3-yl]-diemethylaminosulfonamide]
39	CCN1CCN(c2ccc(NC(=O)NCc3ccccc3)cn2)CC1 [Example 3, 1-benzyl-3-[6-(4-ethyl-piperazin-1-yl)-pyridin-3-yl]-urea]
40	COc1ccc(CC(=O)Nc2ccc(N3CCN(C4CCCC4)CC3)nc2)cc1OC [Example 53, N-[6-(4-cyclopentyl-piperazin-1-yl)-pyridin-3-yl]-2-(3,4-dimethoxy-phenyl)-acetamide]
